# Structures can show the parent of a compound that is named as a salt.
# Assay: pH of saturated aqueous solution
# Assay type: physicochemical
# From the text: The pH of the composition can be controlled or adjusted by the proper selection of excipients. It should be borne in mind that amlodipine maleate is slightly acidic. […] An example of a pH-inert excipient is microcrystalline cellulose.
compound,measurement,value
CCOC(=O)C1=C(COCCN)NC(C)=C(C(=O)OC)C1c1ccccc1Cl (stereo not shown) [amlodipine maleate],pH as a saturated aqueous solution,about 4.8

# Source: US20020176889A1 (priority 2000, published 2002)
